The values that follow come from patent US10550130B2, “Benzo-thiazolo-imidazole compounds and uses thereof” (KING SAUD UNIVERSITY, priority 2015, dated 2020).

Some results are limits rather than exact numbers.

One series concerns intracellular Notch-1. Nature of the series: Immunofluorescence of intracellular Notch-1 in MDA-MB-231 breast cancer cells. It is filed as cell-based. The conditions noted are these: MDA-MB-231 cells; FIGS. 1B and 1C. How it is done: (§1) MDA-MB-231 breast cancer cells were treated either with vehicle (control) or with 0.01 μM, 0.1 μM, 1 μM or 10 μM final concentration of doxorubicin, taxotere or KSA-101696. Then, the cells were cytospun to glass slides by centrifugation at 800 rpm for 3 min. Slides were then air-dried overnight and 4% formaldehyde fixed for 10 min. For staining, the cell membrane was permeabilized with 0.5% triton-X (Sigma) followed by overnight incubation with primary antibodies (anti-Numb, Abcam) and (anti-intracellular Notch-1, Cell Signalling) at 1:100. Cells were washed and stained with AlexaFluor goat anti-rabbit IgG 488 (Invitrogenat) 1:400 for 30 minutes. 300 nM DAPI (Invitrogen, Carlsbad, Calif., USA) was added for 10 minutes to counterstain the nuclei. Slides were mounted and immunofluorescence was visualized using BD Pathway 855 microscope.
(§2) Numb exerts its functional role on cell fate decisions by antagonizing Notch signaling activities. The molecular mechanisms underlying this relationship appear to rely on the ubiquitination of the membrane bound Notch-1 receptor and the subsequent degradation of its NICD (Notch intracellular domain) following receptor activation.

A further series deals with Numb. In words: Immunofluorescence of Numb in MDA-MB-231 breast cancer cells. It is filed as cell-based. The conditions noted are these: MDA-MB-231 cells; 0.01, 0.1, 1 or 10 μM. How it is done:
as §1, §2

Series [1] can be described thus: Apparent toxicity (body weight, general signs) in tumor-bearing mice. The series is classed as in vivo. The conditions noted are these: 200 mg/kg intraperitoneal, three doses. How it is done:
Nude mice (Jackson Laboratories, Bar Harbor, Me., USA) were injected with 4×10^6 cells of MDA-MB-468 in the mammary pad and tumor size was measured weekly using a caliper. When the tumor reached approximately 100 mm^3 diameter the mice were divided into a control group and a group treated with KSA-101696 200 mg/kg via intraperitoneal injection (three cycles every four days). Apparent toxicity as determined by body weight loss is recorded by measuring total body weight. Breeding, care and sacrifice of the animals were carried out in accordance with the protocols approved by the Animal Care and Use Committee of the King Faisal Specialist Hospital and Research Centre.
Because of the observed selective cytotoxic effect of compound KSA-101696 against cancer cells and the tolerance of normal cells and normal stem cells in vitro, a high dose of compound KSA-101696 (200 mg/kg) was used on mice.

For series [2], the system named is THP-1 acute monocytic leukemia cells. Nature of the series: CD34 positive cell population by flow cytometry. The series is classed as cell-based. The conditions noted are these: 48 h. How it is done:
THP-1 leukemic cells were cultured in RPMI medium in […] flask and treated with KSA-101696 for 48 h. Cells were then washed and stained with anti-CD34-FITC (BD biosciences) for 30 min at room temperature. The hematopoietic stem cell population (CD34 positive cells) was analyzed by flow cytometry to evaluate the effect of KAS-101696 on hematopoietic stem cells of leukemic origin.

Series [3] relates to ALDH-positive SKBR3 cells. Nature of the series: Aldefluor assay (ALDH-positive cells). It is filed as cell-based. As for the experimental part:
SKBr3 cells with or without treatment harvested, washed and incubated in aldefluor assay buffer containing an ALDH substrate (BAAA). For negative control, half of the cells of each sample was removed to another FACS tube and incubated under identical condition with DEAB (diethylaminobenzaldehyde), a specific inhibitor of ALDH enzyme.
Because SKBR3 cells include, among various cell lines tested, a particularly high percentage of ALDH-positive cells, SKBR3 cells were selected to evaluate whether KSA-101696 inhibits ALDH-positive cells in vitro.
After two days of treatment with 2.5 μM of KSA-101696, a more that 50% reduction in ALDH-positive cell percentage was observed (FIG. 5A).

Series [4] can be described thus: Determination of LD50 value. As for the experimental part:
Swiss Webster Albino mice were housed in groups of 2 or 4 in elevated steel wire-mesh cages in a controlled room maintained at a temperature of 22±2° C., relative humidity of 50±10% and a 12 h light-dark cycle. Rodent diet chow (feed) provided by Grain Silos Flour Mills Organization, Riyadh, Saudi Arabia, and tap water for drinking were made available ad lib.
Male mice were divided into various groups (n=10 animals per group). Each group was administered a different dose of the respective compound via the intraperitoneal (i.p.) route. The dose range used was 100-5000 mg/kg.
During the observation periods there was a continuous record of any behavioral changes and clinical symptoms that caused by effects on the central and autonomic nervous systems, the respiratory and the cardiovascular systems or any other action on the gastrointestinal tract, the renal systems, eye, skin, skeletal muscles etc.
During the 72 hour observation period the number of animals that died in every group was recorded. The percentage of death calculated and converted to probits to calculate the LD50 value for each compound in mg/kg. The LD50 value reported in this study provided compounds in their liquid form in the provided concentrations.

Turning to `COc1ccc(-c2csc3nc4ccccc4n23)cc1` [KSA-101696, 3-(4-methoxyphenyl)benzo[4,5]imidazo[2,1-b]thiazole], in the series on intracellular Notch-1, the “concentration inhibiting intracellular Notch-1 by activating Numb expression” value is 0.625 µM. The “Numb expression (immunofluorescence microscopy)” value in the series with Numb is “induced Numb”. In addition, in series [1], the “signs of general toxicity” value is “no convulsions, CNS stimulation, diarrhea, increased urination, miosis or mydriasis” and the weight loss entry is recorded as “no measurable weight loss”. Further, the “CD34+ cells percentage” value in series [2] is “reduction of CD34^+ cells percentage”. Besides, the “reduction in ALDH-positive cell percentage” value in series [3] (2.5 μM, two days) was > 50%. Also, the IC50 in series [3] (Homo sapiens, SK-BR-3) is ~2000 nM. In series [4] (intraperitoneal), the “Therapeutic ratio = LD50/ED50” value is 40. Besides, in series [4] (male, Swiss Webster Albino, mouse, in vivo, ip), the median lethal dose (LD50) at 72 h worked out at 2000 mg/kg.
